Laboratory results reported in ChEMBL document CHEMBL1150898, “Synthesis and dopamine receptor selectivity of the benzyltetrahydroisoquinoline, (R)-(+)-nor-roefractine” (J Nat Prod, 1998).

Columns and labels:
[1] = target: D(1A) dopamine receptor (Rattus norvegicus, UniProt P18901); assay: Displacement of [3H]SCH-23390 from rat striatal dopamine D1 receptor
[2] = species: Rattus norvegicus; assay: Selectivity for rat striatal dopamine D2 receptor over rat striatal dopamine D1 receptor
[3] = target: D(2) dopamine receptor (Rattus norvegicus, UniProt P61169); assay: Displacement of [3H]raclopride from rat striatal dopamine D2 receptor
D(2) dopamine receptor, sequence (P61169 whole entry): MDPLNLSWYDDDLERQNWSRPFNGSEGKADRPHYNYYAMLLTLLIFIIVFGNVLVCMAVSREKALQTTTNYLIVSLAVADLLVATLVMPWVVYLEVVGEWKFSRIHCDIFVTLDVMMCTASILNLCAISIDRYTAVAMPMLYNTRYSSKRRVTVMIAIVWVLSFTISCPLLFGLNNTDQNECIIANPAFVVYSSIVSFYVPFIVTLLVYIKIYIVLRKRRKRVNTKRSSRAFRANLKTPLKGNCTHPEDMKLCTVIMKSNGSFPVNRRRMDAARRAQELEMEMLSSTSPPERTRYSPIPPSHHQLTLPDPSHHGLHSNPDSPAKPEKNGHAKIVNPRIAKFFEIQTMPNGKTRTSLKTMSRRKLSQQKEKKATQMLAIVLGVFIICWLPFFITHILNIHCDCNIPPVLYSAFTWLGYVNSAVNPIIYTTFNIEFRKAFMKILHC

D(1A) dopamine receptor, sequence (P18901 whole entry): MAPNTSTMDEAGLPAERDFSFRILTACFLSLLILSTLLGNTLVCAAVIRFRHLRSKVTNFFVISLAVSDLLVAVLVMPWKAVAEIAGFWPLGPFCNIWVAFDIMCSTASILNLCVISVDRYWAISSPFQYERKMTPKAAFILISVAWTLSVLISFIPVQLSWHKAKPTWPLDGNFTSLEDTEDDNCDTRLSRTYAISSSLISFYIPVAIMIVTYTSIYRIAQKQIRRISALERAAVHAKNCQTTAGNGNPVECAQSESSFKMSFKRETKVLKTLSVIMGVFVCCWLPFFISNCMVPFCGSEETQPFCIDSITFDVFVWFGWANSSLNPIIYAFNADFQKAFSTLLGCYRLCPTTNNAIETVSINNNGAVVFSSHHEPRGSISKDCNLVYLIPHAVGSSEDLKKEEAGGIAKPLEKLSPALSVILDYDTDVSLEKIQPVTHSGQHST

Row | Selectivity ratio [2] | Structure (SMILES) | IC50 [1] [nM] | IC50 [3] [nM]
1 | 6 | COc1ccc(C[C@H]2NCCc3cc(O)c(OC)cc32)cc1 [NOR-ROEFRACTINE] | 32900 | 5000
2 | – | COc1cc2c(cc1O)[C@@H](Cc1ccc(O)cc1)NCC2 | 240 | 130
